Results taken from patent publication US20250114345A1, “COMPOUNDS AND COMPOSITIONS AS CBP/P300 DEGRADERS AND USES THEREOF” (Oncopia Therapeutics, Inc. d/b/a/ SK Life Science Labs, priority 2023, published 2025).

Experiments:
p300 = target: T1, p300 (Homo sapiens, UniProt Q09472); assay: P300 degradation, HiBit technology in A549 P300 HiBit cells (2 h); format: cell-based; details: 2 hrs post treatment; for Dmax: A549, A549 P300 HiBit cells
T1 construct: host or cells: A549 P300 HiBit cells
Summary of the method: (§1)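 HiBiT knock-in A549 cells received compound in serial dilution at 37 °C under 5% CO2. Remaining tagged protein was quantified by lytic HiBiT luminescence after 10 min shaking at room temperature, yielding potency and maximal degradation.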

CBP = target: T2, CBP (Homo sapiens, UniProt Q92793); assay: CBP degradation, HiBit technology in A549 CBP HiBit cells (24 h); format: cell-based; details: 24 hrs post treatment
T2 construct: host or cells: A549 CBP HiBit cells
T2 sequence (Q92793 whole entry): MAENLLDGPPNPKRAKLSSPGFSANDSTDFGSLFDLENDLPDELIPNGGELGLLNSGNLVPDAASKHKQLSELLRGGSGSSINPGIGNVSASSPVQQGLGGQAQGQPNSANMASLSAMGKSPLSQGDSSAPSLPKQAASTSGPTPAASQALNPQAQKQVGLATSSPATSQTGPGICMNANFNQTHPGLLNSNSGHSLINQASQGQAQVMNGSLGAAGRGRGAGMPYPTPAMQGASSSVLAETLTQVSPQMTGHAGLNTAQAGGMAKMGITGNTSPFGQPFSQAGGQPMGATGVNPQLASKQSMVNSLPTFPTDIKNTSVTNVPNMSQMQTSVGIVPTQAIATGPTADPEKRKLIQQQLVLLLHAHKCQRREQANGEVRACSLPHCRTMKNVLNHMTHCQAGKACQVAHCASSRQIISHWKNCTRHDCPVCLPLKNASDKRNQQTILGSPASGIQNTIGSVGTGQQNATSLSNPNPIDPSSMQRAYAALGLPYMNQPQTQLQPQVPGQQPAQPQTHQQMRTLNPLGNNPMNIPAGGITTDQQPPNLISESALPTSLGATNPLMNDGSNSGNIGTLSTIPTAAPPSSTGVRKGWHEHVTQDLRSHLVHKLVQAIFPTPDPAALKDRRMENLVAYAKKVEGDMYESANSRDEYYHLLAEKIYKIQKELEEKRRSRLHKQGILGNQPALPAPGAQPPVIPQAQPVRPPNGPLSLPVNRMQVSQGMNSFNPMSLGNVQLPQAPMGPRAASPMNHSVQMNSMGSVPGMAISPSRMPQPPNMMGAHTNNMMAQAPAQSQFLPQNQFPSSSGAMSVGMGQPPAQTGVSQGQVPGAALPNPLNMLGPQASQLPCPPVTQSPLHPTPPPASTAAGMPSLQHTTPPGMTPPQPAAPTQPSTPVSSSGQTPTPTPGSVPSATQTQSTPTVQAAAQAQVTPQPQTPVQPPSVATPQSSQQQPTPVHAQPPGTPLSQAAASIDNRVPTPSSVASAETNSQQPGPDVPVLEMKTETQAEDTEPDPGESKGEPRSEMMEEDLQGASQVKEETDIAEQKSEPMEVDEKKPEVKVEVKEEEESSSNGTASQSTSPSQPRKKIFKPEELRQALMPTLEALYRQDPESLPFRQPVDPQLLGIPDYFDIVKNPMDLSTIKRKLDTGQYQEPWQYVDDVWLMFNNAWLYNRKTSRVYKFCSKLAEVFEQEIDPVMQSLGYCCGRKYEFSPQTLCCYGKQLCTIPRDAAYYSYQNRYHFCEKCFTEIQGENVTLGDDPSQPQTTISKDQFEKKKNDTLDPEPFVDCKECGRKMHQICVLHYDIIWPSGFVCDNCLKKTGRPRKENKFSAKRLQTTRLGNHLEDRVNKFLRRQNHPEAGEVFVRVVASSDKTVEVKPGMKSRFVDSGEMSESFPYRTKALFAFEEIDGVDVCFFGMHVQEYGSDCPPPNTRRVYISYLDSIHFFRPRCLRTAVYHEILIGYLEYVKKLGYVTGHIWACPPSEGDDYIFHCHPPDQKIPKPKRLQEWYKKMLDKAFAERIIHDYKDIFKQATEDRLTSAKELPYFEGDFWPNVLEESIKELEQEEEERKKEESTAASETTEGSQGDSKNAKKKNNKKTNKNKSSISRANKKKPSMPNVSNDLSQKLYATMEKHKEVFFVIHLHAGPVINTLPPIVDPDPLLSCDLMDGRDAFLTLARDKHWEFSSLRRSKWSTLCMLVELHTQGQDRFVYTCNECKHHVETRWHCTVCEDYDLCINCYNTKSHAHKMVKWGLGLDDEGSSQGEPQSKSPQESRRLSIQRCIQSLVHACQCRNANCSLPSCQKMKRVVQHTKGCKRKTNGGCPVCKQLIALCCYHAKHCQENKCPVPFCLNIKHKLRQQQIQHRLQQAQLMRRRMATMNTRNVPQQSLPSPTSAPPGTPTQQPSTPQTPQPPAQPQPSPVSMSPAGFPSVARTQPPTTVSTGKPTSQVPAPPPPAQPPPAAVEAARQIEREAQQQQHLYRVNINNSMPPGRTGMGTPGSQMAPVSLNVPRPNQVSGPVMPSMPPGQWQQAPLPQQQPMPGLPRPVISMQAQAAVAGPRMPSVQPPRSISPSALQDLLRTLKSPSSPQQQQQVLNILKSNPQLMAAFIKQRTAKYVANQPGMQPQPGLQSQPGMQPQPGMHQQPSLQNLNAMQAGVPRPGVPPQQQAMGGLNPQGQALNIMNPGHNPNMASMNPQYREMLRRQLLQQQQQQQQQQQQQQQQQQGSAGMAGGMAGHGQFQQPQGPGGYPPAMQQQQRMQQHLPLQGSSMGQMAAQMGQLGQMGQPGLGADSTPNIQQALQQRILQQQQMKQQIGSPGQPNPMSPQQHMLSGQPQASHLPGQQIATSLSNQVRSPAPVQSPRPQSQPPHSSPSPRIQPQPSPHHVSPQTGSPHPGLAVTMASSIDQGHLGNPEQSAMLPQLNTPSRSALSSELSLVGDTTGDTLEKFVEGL
Summary of the method: as §1

T1 sequence (Q09472 whole entry): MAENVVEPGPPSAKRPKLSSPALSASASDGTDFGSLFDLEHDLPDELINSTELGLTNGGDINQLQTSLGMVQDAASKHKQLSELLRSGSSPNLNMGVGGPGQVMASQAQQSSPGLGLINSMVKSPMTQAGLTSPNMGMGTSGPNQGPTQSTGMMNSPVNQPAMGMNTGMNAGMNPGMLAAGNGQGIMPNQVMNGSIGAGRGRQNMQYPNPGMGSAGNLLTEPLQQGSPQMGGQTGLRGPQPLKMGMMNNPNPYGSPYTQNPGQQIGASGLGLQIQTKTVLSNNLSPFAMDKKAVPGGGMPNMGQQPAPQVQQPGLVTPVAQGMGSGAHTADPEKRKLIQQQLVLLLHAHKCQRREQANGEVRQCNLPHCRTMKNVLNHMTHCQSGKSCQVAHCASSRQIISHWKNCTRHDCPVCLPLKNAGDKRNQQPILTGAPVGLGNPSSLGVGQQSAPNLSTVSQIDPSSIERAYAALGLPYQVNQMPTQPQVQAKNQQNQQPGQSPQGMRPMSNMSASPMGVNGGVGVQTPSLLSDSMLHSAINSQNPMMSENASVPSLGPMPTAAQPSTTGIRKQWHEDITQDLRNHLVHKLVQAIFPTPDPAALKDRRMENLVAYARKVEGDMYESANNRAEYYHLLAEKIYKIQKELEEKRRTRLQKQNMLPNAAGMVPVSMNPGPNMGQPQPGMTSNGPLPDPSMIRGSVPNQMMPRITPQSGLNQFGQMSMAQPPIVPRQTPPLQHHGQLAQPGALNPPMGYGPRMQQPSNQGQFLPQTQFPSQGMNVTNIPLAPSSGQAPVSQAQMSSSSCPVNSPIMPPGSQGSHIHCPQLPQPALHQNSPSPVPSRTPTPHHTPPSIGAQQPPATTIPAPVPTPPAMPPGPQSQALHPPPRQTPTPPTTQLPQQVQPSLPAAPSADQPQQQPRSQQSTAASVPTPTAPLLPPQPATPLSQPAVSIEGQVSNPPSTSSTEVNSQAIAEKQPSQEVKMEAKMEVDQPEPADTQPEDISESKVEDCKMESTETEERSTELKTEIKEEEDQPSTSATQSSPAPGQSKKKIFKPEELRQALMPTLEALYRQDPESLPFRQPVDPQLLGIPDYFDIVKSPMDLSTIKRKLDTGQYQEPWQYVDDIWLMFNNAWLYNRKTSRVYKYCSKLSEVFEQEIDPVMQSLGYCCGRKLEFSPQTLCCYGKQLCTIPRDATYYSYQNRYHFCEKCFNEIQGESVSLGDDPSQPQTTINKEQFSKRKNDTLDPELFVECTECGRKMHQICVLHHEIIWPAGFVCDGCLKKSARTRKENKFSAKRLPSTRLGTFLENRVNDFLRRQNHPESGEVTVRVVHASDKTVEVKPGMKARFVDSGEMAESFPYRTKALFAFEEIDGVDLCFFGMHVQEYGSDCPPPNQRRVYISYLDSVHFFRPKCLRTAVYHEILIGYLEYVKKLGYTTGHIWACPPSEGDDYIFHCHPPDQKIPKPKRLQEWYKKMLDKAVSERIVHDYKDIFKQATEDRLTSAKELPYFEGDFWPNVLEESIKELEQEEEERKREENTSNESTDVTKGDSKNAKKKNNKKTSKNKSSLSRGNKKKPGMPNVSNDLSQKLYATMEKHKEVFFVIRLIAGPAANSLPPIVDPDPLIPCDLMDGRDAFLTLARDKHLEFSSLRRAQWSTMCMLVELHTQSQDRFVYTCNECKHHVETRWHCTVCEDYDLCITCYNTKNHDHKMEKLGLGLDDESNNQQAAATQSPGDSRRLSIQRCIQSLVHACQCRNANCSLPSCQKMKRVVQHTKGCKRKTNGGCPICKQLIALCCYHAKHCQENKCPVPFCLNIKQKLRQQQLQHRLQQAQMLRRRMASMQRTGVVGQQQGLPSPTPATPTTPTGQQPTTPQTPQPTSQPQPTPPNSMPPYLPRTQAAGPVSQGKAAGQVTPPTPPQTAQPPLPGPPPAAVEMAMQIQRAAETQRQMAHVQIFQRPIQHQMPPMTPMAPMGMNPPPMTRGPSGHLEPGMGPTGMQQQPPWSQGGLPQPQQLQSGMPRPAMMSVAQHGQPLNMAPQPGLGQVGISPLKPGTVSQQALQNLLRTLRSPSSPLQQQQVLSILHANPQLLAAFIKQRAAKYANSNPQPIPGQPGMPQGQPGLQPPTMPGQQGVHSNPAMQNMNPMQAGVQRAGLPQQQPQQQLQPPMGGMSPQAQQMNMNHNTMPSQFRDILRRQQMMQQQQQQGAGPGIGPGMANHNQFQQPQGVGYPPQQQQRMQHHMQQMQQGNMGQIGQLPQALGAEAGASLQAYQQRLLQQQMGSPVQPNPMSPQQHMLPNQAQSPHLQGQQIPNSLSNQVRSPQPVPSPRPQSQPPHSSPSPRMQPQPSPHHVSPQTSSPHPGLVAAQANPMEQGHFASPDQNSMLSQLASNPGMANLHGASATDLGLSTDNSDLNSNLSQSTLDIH

Dmax (p300) | DC50 (p300; A549 P300 HiBit cells) | DC50 (CBP) | Dmax (CBP) | P300 A549 2 h HiBit DMax (%) (p300; A549 P300 HiBit cells) | CBP A549 24 h HiBit DMax (%) (CBP) | SMILES
> 80% | 1 to 9.9 nM | > 1000 nM | < 20% |  |  | Cc1cc2c(N3CCOc4cc(-c5ccc(C(=O)NCC#Cc6ccc7occ(C8CCC(=O)NC8=O)c7c6)nc5)c(F)cc43)cc(N3CC4(COC4)C3)cc2n(C)c1=O (centres unmarked) [Example B58, 5-(4-(1,3-dimethyl-2-oxo-7-(2-oxa-6-azaspiro[3.3]heptan-6-yl)-1,2-dihydro-quinolin-5-yl)-6-fluoro-3,4-dihydro-2H-benzo[b][1,4]oxazin-7-yl)-N-(3-(3-(2,6-dioxopiperidin-3-yl)benzofuran-5-yl)prop-2-yn-1-yl)picolinamide]
> 80% | 1 to 9.9 nM | 10 to 99 nM | > 80% |  |  | Cc1cc(-c2cc3cccc(-c4cc(C(C)C)c5c(c4)n(C)c(=O)n5C)c3cn2)cnc1C(=O)NCC#Cc1ccc2c(c1)c(C1CCC(=O)NC1=O)nn2C (centres unmarked) [Example A269, N-(3-(3-(2,6-dioxopiperidin-3-yl)-1-methyl-1H-indazol-5-yl)prop-2-yn-1-yl)-5-(8-(7-isopropyl-1,3-dimethyl-2-oxo-2,3-dihydro-1H-benzo[d]imidazol-5-yl)iso-quinolin-3-yl)-3-methylpicolinamide]
> 80% | < 1 nM | 1 to 9.9 nM | 20 to 39% |  |  | Cc1cc2c(N3CCCc4nc(-c5ccc(C(=O)NCC#Cc6cc7c(C8CCC(=O)NC8=O)nccc7o6)nc5)ncc43)cc(C3CCOCC3)cc2n(C)c1=O (centres unmarked) [Example B94, 5-(5-(1,3-dimethyl-2-oxo-7-(tetrahydro-2H-pyran-4-yl)-1,2-dihydroquinolin-5-yl)-5,6,7,8-tetrahydropyrido[3,2-d]pyrimidin-2-yl)-N-(3-(4-(2,6-dioxopiperidin-3-yl)furo[3,2-c]pyridin-2-yl)prop-2-yn-1-yl)picolinamide]
> 80% | 1 to 9.9 nM | 10 to 99 nM | > 80% |  |  | CC(C)c1cc(-c2cccc3cc(-c4ccc(C(=O)NCC#Cc5ccc6c(c5)c(C5CCC(=O)NC5=O)nn6C)nc4)ncc23)cc2c1n(C)c(=O)n2C (centres unmarked) [Example A5, N-(3-(3-(2,6-Dioxopiperidin-3-yl)-1-methyl-1H-indazol-5-yl)prop-2-yn-1-yl)-5-(8-(7-isopropyl-1,3-dimethyl-2-oxo-2,3-dihydro-1H-benzo[d]imidazol-5-yl)isoquinolin-3-yl)picolinamide]
> 80% | 1 to 9.9 nM | 10 to 99 nM | 20 to 39% |  |  | Cc1cc2c(-c3cccc4cc(-c5ccc(C(=O)NCC#Cc6ccc7occ(C8CCC(=O)NC8=O)c7c6)nc5)ncc34)nc(N3CCOCC3)cc2n(C)c1=O (centres unmarked) [Example B92, 5-(8-(1,3-dimethyl-7-morpholino-2-oxo-1,2-dihydro-1,6-naphthyridin-5-yl)isoquinolin-3-yl)-N-(3-(3-(2,6-dioxopiperidin-3-yl)benzofuran-5-yl)prop-2-yn-1-yl)picolinamide]
> 80% | 1 to 9.9 nM | > 1000 nM | < 20% |  |  | Cc1cc2c(-c3cn(C)c(=O)c4cc(-c5ccc(C(=O)NCC#Cc6cc7c(C8CCC(=O)NC8=O)cccc7o6)nc5)ncc34)nc(N3CCOCC3)cc2n(C)c1=O (centres unmarked) [Example B131, 5-(8-(1,3-dimethyl-7-morpholino-2-oxo-1,2-dihydro-1,6-naphthyridin-5-yl)-6-methyl-5-oxo-5,6-dihydro-2,6-naphthyridin-3-yl)-N-(3-(4-(2,6-dioxopiperidin-3-yl)benzofuran-2-yl)prop-2-yn-1-yl)picolinamide]
> 80% | 1 to 9.9 nM | 10 to 99 nM | 20 to 39% |  |  | Cc1cc(-c2ncc3c(n2)CCCN3c2cc(C3CCOCC3)cc3c2cc(C)c(=O)n3C)cnc1C(=O)NCC#Cc1cc2c(C3CCC(=O)NC3=O)cccc2s1 (centres unmarked) [Example B165, 5-(5-(1,3-dimethyl-2-oxo-7-(tetrahydro-2H-pyran-4-yl)-1,2-dihydroquinolin-5-yl)-5,6,7,8-tetrahydropyrido[3,2-d]pyrimidin-2-yl)-N-(3-(4-(2,6-dioxopiperidin-3-yl)benzo[b]thiophen-2-yl)prop-2-yn-1-yl)-3-methylpicolinamide]
> 80% | 1 to 9.9 nM | 10 to 99 nM | 20 to 39% |  |  | Cc1cc2c(N3CCCc4nc(-c5ccc(C(=O)NCC#Cc6cc7c(C8CCC(=O)NC8=O)nccc7o6)nc5)ncc43)cc(C(C)C)cc2n(C)c1=O (centres unmarked) [Example B157, N-(3-(4-(2,6-dioxopiperidin-3-yl)furo[3,2-c]pyridin-2-yl)prop-2-yn-1-yl)-5-(5-(7-isopropyl-1,3-dimethyl-2-oxo-1,2-dihydroquinolin-5-yl)-5,6,7,8-tetrahydropyrido[3,2-d]pyrimidin-2-yl) picolinamide]
> 80% | < 1 nM | 100 to 999 nM | < 20% |  |  | Cc1cc2c(N3CCCc4nc(-c5ccc(C(=O)NCC#Cc6cc7c([C@H]8CCC(=O)NC8=O)cccc7o6)nc5)ncc43)nc(N3CCOCC3)cc2n(C)c1=O [Example B29, (R)-5-(5-(1,3-dimethyl-7-morpholino-2-oxo-1,2-dihydro-1,6-naphthyridin-5-yl)-5,6,7,8-tetrahydropyrido[3,2-d]pyrimidin-2-yl)-N-(3-(4-(2,6-dioxopiperidin-3-yl)benzofuran-2-yl)prop-2-yn-1-yl)picolinamide]
> 80% | 1 to 9.9 nM | > 1000 nM | < 20% |  |  | Cn1c(=O)n(C)c2c(C3CC3)cc(-c3cccc4cc(-c5ccc(C(=O)NCC#Cc6cc7c(C8CCC(=O)NC8=O)cccc7o6)nc5)ncc34)cc21 (centres unmarked) [Example A261, 5-(8-(7-cyclopropyl-1,3-dimethyl-2-oxo-2,3-dihydro-1H-benzo[d]imidazol-5-yl)isoquinolin-3-yl)-N-(3-(4-(2,6-dioxopiperidin-3-yl)benzofuran-2-yl)prop-2-yn-1-yl)picolinamide]
> 80% | 1 to 9.9 nM | > 1000 nM | < 20% |  |  | Cn1c(=O)n(C)c2c(N3CC4CCC(C3)O4)nc(-c3cccc4cc(-c5ccc(C(=O)NCC#Cc6ccc7occ(C89CC(C8)C(=O)NC9=O)c7c6)nc5)ncc34)cc21 [Example A194, 5-(8-(4-(8-oxa-3-azabicyclo[3.2.1]octan-3-yl)-1,3-dimethyl-2-oxo-2,3-dihydro-1H-imidazo[4,5-c]pyridin-6-yl)isoquinolin-3-yl)-N-(3-(3-(2,4-dioxo-3-azabicyclo[3.1.1]heptan-1-yl)benzofuran-5-yl)prop-2-yn-1-yl)picolinamide]
> 80% | 1 to 9.9 nM | 10 to 99 nM | 20 to 39% |  |  | Cc1cc2c(N3CCCc4nc(-c5ccc(C(=O)NCC#Cc6cc7c(C8CCC(=O)NC8=O)nccc7o6)nc5)ncc43)nc(N3CCC3)cc2n(C)c1=O (centres unmarked) [Example B35, 5-(5-(7-(azetidin-1-yl)-1,3-dimethyl-2-oxo-1,2-dihydro-1,6-naphthyridin-5-yl)-5,6,7,8-tetrahydropyrido[3,2-d]pyrimidin-2-yl)-N-(3-(4-(2,6-dioxopiperidin-3-yl)furo[3,2-c]pyridin-2-yl)prop-2-yn-1-yl)picolinamide]
 | 10 to 99 nM | > 1000 nM |  | D (“D”: 20-39%) | E (“E”: < 20%) | Cc1cc(-c2ncc3c(n2)OCCN3c2ccc3c(c2)n(C)c(=O)n3C)cnc1C(=O)NCC#Cc1ccc2occ(C3CCC(=O)NC3=O)c2c1 (centres unmarked) [Example A93, 5-(5-(1,3-dimethyl-2-oxo-2,3-dihydro-1H-benzo[d]imidazol-5-yl)-6,7-dihydro-5H-pyrimido[4,5-b][1,4]oxazin-2-yl)-N-(3-(3-(2,6-dioxopiperidin-3-yl)benzofuran-5-yl)prop-2-yn-1-yl)-3-methylpicolinamide]
> 80% | < 1 nM | 100 to 999 nM | < 20% |  |  | Cc1cc2c(N3CCCc4nc(-c5ccc(C(=O)NCC#Cc6cc7c([C@H]8CCC(=O)NC8=O)cccc7o6)nc5)ncc43)cc(C3CCOCC3)nc2n(C)c1=O [Example B48, (R)-5-(5-(6,8-dimethyl-7-oxo-2-(tetrahydro-2H-pyran-4-yl)-7,8-dihydro-1,8-naphthyridin-4-yl)-5,6,7,8-tetrahydropyrido[3,2-d]pyrimidin-2-yl)-N-(3-(4-(2,6-dioxopiperidin-3-yl)benzofuran-2-yl)prop-2-yn-1-yl)picolinamide]
60 to 79% | 1 to 9.9 nM | > 1000 nM | < 20% |  |  | Cc1cc2c(N3CCCc4nc(-c5ccc(C(=O)NCC#Cc6ccc7occ(C8CCC(=O)NC8=O)c7c6)nc5)ncc43)nc(N3CC4CCC(C3)O4)cc2n(C)c1=O (centres unmarked) [Example B115, 5-(5-(7-(8-oxa-3-azabicyclo[3.2.1]octan-3-yl)-1,3-dimethyl-2-oxo-1,2-dihydro-1,6-naphthyridin-5-yl)-5,6,7,8-tetrahydropyrido [3,2-d]pyrimidin-2-yl)-N-(3-(3-(2,6-dioxopiperidin-3-yl)benzofuran-5-yl)prop-2-yn-1-yl)picolinamide]
> 80% | < 1 nM | > 1000 nM | < 20% |  |  | Cc1cc2c(N3CCCc4nc(-c5ccc(C(=O)NCC#Cc6cc7c(C8CCC(=O)NC8=O)c(F)ccc7o6)nc5)ncc43)cc(C3CCOCC3)cc2n(C)c1=O (centres unmarked) [Example B90, 5-(5-(1,3-dimethyl-2-oxo-7-(tetrahydro-2H-pyran-4-yl)-1,2-dihydroquinolin-5-yl)-5,6,7,8-tetrahydropyrido[3,2-d]pyrimidin-2-yl)-N-(3-(4-(2,6-dioxopiperidin-3-yl)-5-fluorobenzo-furan-2-yl)prop-2-yn-1-yl)picolinamide]
> 80% | 1 to 9.9 nM | > 1000 nM | < 20% |  |  | Cc1cc(-c2cc3cccc(-c4ccc5c(c4)n(C)c(=O)n5C)c3cn2)cnc1C(=O)NCC#Cc1cc2c([C@@H]3CCC(=O)NC3=O)cccc2o1 [Example A182, (S)-5-(8-(1,3-dimethyl-2-oxo-2,3-dihydro-1H-benzo[d]imidazol-5-yl)isoquinolin-3-yl)-N-(3-(4-(2,6-dioxopiperidin-3-yl)benzofuran-2-yl)prop-2-yn-1-yl)-3-methylpicolinamide]
